# Measured values published in US20220332758A1, “PEPTIDE-BASED COMPOSITIONS AND METHODS FOR TREATING ALZHEIMER'S DISEASE” (Board of Regents, The Universityof Texas System, priority 2019, published 2022).
# Legend:
# [1] = molecular target: T1, proteasome ChT-L activity in SK-N-SH (ATCC HTB-11) cells (Homo sapiens, UniProt P25787+P60900); assay: ChT-L proteasome activity in lysates of SK-N-SH cells treated with TAT peptides; assay type: cell-based; conditions: 1 μM, 24 h
# T1 construct: host or cells: SK-N-SH human neuroblastoma cells
# Description: (§1) Cell Culture. Human SK-N-SH neuroblastoma cell line (ATCC® HTB-11™ American Type Culture Collection; Manassas, Va.) were cultured according to ATCC specifications (EMEM, 10% heat-inactivated FBS) The cells at passage 2-4 were treated with 1 μM TAT peptides or the DMSO vehicle diluted with the medium 1: 1000, for 24 h. The content of live cells was determined by the Trypan Blue-exclusion assay. The cells were harvested, washed twice in PBS, resuspended in dilution buffer (as described herein) and stored in −80° C. To prepare lysates, the thawed preparations were vortexed with glass beads and centrifuged for 5 min 5,000×g (4° C.). The supernatant was centrifuged for 20 min 14,000×g (4° C.). The resulting supernatant—“crude lysate” was diluted to 1 mg/mL of total protein with dilution buffer. 1 μg of lysate per assay (reaction buffer: 50 mM Tris/HCl pH 8, 0.1 mM MgCl2, 0.2 mM ATP, 0.1 mM dithiothreitol, 50 μM Suc-LLVY-AMC (SEQ ID NO: 14)) was used for determination of ChT-L activity in a 96-well format, as above.
# [2] = molecular target: T2, α face pockets of the 20S core proteasome (Homo sapiens, UniProt P25787+P60900); assay: Competition of TAT peptides with Rpt C-terminal tail peptides for α face pockets (ChT-L activity of 20S); assay type: biochemical
# T2 construct: purified from erythrocytes; purchased Boston Biochem, Inc. or Enzo Life Sciences, Inc; host or cells: human erythrocytes
# Description: As mentioned herein, the binding pockets on the α face accept “anchors” from natural protein ligands of the 20S core. […] The 10-residue Rpt-derived C-terminal “tail” peptides (“Rpt peptides”) can be used as competitors with the Rpt subunits or with small allosteric ligands. Importantly, the Rpt peptides interject between the subunits with their C-termini, whereas TAT peptides, according to the modeling, use their N-termini for this purpose. To test the specificity of interactions between TAT compounds and the α face, competition experiments were performed. The 20S core was challenged with selected TAT compounds after treatment with Rpt peptides. Peptides of Rpt2 ([…]; SEQ ID NO: 10), Rpt3 ([…]; SEQ ID NO: 11), Rpt5 ([…]; SEQ ID NO: 12) and Rpt6 ([…]; SEQ ID NO: 13) subunits were selected, docking in α3/α4, α1/α2, α5/α6 and α2/α3 pockets, respectively. Tails of Rpt2, 3, and 5 display the canonical HbYX motif, whereas the LeuTrpLys C-terminus of Rpt6 may be considered “pseudo-HbYX”, with a bulky Trp replacing Tyr. Results of the competition experiments are presented as radar plots in FIG. 15. […] This pocket also emerged as the major binding site for (1) and (8). However, these compounds likely weakly competed with the Rpt2 tail for binding to the α3/α4 pocket as well. The α3/α4 pocket seemed to be favored by (6). […] These complex patterns point at the importance of allosteric effects between the α face ligands, the gate and the catalytic chamber.
# Determination of Proteasome Activity. Human housekeeping core (20S) proteasome purified from erythrocytes was purchased from Boston Biochem, Inc. (Cambridge, Mass.) or from Enzo Life Sciences, Inc. (Farmingdale, N.Y.). Multiple batches of the proteasomes were used and performed reproducibly. The stock proteasome was diluted to 0.2 mg/mL working solution in “dilution buffer” (50 mM Tris/HCl, pH 8, 20% glycerol). The following model peptide substrates, releasing fluorescent 7-amino-4-methylcoumarin (AMC) reporter group after cleavage, were used: succinyl-LeuLeuValTyr-AMC (SEQ ID NO: 14) (for the ChT-L peptidase; SucLLVY-AMC; Bachem Bioscience Inc., Philadelphia, Pa.), butoxycarbonyl-LeuArgArg-AMC (T-L; Bachem Bioscience Inc., Philadelphia, Pa.) and carbobenzoxy-LeuLeuGlu-AMC (PGPH; Enzo Life Sciences Inc., Farmingdale, N.Y.). The substrates were used at concentration of 50 μM (ChT-L) or 100 μM (T-L, PGPH). Free AMC (Sigma-Aldrich, St. Louis, Mo.) was used as the standard. The C-terminal peptides derived from Rpt2, Rpt3, Rpt5 and Rpt6 were synthesized (standard solid-phase peptide chemistry) and purified to at least 98% purity by GenScript (Piscataway, N.J.). The TAT peptides, Rpt peptides (except Rpt6) and the peptide substrates were dissolved in anhydrous dimethylsulfoxide (DMSO; Sigma-Aldrich, St. Louis, Mo.) and such stock solutions were stored at −20° C. The total concentration of DMSO in final reaction mixtures never exceeded 3% (vol/vol). The Trp (tryptophan)-containing Rpt6 peptide was dissolved in ultrapure water and stored at −20° C., protected from light. The reaction was carried out in 96-well plates, in 100 μL of reaction mixture that consisted of 45 mM Tris/HCl, pH 8, 100 mM KCl, 1 mM EDTA (reaction buffer) and a fluorogenic peptide substrate, to which 200 ng (nearly […]) of proteasome were added. The addition of KCl/EDTA (ethylenediaminetetraacetic acid) to reaction buffer assured latency of the core proteasome. The proteasome was preincubated with a substrate for 10 min at room temperature, then 1 μL of DMSO or a desired concentration of a TAT peptide in 1 μL of DMSO were added. After mixing, the plate was transferred to a Fluoroskan Ascent plate reader (Thermo Fisher Scientific Inc., Waltham, Mass.) for 1 h (37° C.), with fluorescence readouts once per minute. To test the competition with Rpt derived peptides, the Rpt peptide (1 μM) was added before the TAT peptide to the reaction mixture. […]
# 20S proteasome = 20S proteasome (Homo sapiens, UniProt P25787+P60900); conditions: cited from earlier work
# [3] = molecular target: proteasome in SK-N-SH cell lysates (Homo sapiens, UniProt P28074); assay: ChT-L activity of SK-N-SH cell lysates exposed to Bortezomib; assay type: biochemical; conditions: 1 μM
# Description: as §1
# [4] = molecular target: T3, latent human 20S proteasome (Homo sapiens, UniProt P25787+P60900); assay: Chymotrypsin-like (ChT-L) activity of purified latent human 20S proteasome, Suc-LLVY-AMC substrate; assay type: biochemical
# T3 construct: purified from erythrocytes; purchased Boston Biochem, Inc. or Enzo Life Sciences, Inc; host or cells: human erythrocytes
# Description: Determination of Proteasome Activity. Human housekeeping core (20S) proteasome purified from erythrocytes was purchased from Boston Biochem, Inc. (Cambridge, Mass.) or from Enzo Life Sciences, Inc. (Farmingdale, N.Y.). […] The stock proteasome was diluted to 0.2 mg/mL working solution in “dilution buffer” (50 mM Tris/HCl, pH 8, 20% glycerol). The following model peptide substrates, releasing fluorescent 7-amino-4-methylcoumarin (AMC) reporter group after cleavage, were used: succinyl-LeuLeuValTyr-AMC (SEQ ID NO: 14) (for the ChT-L peptidase; SucLLVY-AMC; Bachem Bioscience Inc., Philadelphia, Pa.), butoxycarbonyl-LeuArgArg-AMC (T-L; Bachem Bioscience Inc., Philadelphia, Pa.) and carbobenzoxy-LeuLeuGlu-AMC (PGPH; Enzo Life Sciences Inc., Farmingdale, N.Y.). The substrates were used at concentration of 50 μM (ChT-L) or 100 μM (T-L, PGPH). Free AMC (Sigma-Aldrich, St. Louis, Mo.) was used as the standard. […] The TAT peptides, Rpt peptides (except Rpt6) and the peptide substrates were dissolved in anhydrous dimethylsulfoxide (DMSO; Sigma-Aldrich, St. Louis, Mo.) and such stock solutions were stored at −20° C. The total concentration of DMSO in final reaction mixtures never exceeded 3% (vol/vol). The Trp (tryptophan)-containing Rpt6 peptide was dissolved in ultrapure water and stored at −20° C., protected from light. The reaction was carried out in 96-well plates, in 100 μL of reaction mixture that consisted of 45 mM Tris/HCl, pH 8, 100 mM KCl, 1 mM EDTA (reaction buffer) and a fluorogenic peptide substrate, to which 200 ng (nearly […]) of proteasome were added. […] The proteasome was preincubated with a substrate for 10 min at room temperature, then 1 μL of DMSO or a desired concentration of a TAT peptide in 1 μL of DMSO were added. After mixing, the plate was transferred to a Fluoroskan Ascent plate reader (Thermo Fisher Scientific Inc., Waltham, Mass.) for 1 h (37° C.), with fluorescence readouts once per minute. To test the competition with Rpt derived peptides, the Rpt peptide (1 μM) was added before the TAT peptide to the reaction mixture. The reaction rates were calculated from a linear segment of kinetic curves constructed from measurements in 1-min intervals. Reaction rates were calculated using a linear fit performed with the Slope Analyser and Enzyme Kinetics applications launched within Origin Pro 2019 (OriginLab Corporation, Northampton, Mass.). […] The data are presented as mean±SD from at least three independent experiments.
# Statistical Analysis. Experiments were performed at least in three independent replicates. The results are presented as a mean±SD. A two-tailed t-test was applied to compare the means. The comparisons were allowing for unequal variances with a Welch correction. Abundance of proteasome conformers was compared with the chi squared test and two-sample proportion test. A significance level was set at 0.05. Statistical analysis was performed using statistical procedures offered by OriginPro 2019 (OriginLabs, Northampton, Mass.). Reaction rates were calculated from a smoothed linear segment of kinetic traces using OriginPro 2019. Response curves (activity vs. compound concentration) were fitted with a nonlinear fitting application of OriginPro 2019. The AC50 and maximum activation fold was calculated based on the equations implemented to fit the response curves.
smiles,measurement,setting,value
"N=C(N)NCCC[C@H](NC(=O)CN)C(=O)N[C@@H](CCCCN)C(=O)N[C@@H](CCCCN)C(=O)N[C@@H](CCCNC(=N)N)C(=O)N[C@@H](CCCNC(=N)N)C(=O)N[C@@H](CCC(N)=O)C(=O)N[C@@H](CCCNC(=N)N)C(=O)N[C@@H](CCCNC(=N)N)C(=O)N[C@@H](CCCNC(=N)N)C(=O)N1CCC[C@H]1C(=O)N[C@@H](CO)C(=O)O [(1), reference compound]",proteasome ChT-L activity in lysates from treated cells vs control lysates,[1],lack of significant activation
same,enhanced activation with Rpt tails,[2]; 1 μM Rpt peptide,"enhanced activation in the presence of one of Rpt tails, namely Rpt5 or Rpt6"
same,competition with Rpt tail peptides,[2]; 1 μM Rpt peptide added before the TAT peptide,weakly negative score for the Rpt2 tail to the presumed major competitor Rpt3
same,degradation by 20S proteasome,20S proteasome,digested by 20S proteasome
CC(C)C[C@H](NC(=O)[C@H](Cc1ccccc1)NC(=O)c1cnccn1)B(O)O [Bortezomib],effect on ChT-L activity of cell lysates (in words),[3],almost complete abrogation of ChT-L activity
"CC(C)(NC(=O)C(CCC(N)=O)NC(=O)C(CCCNC(=N)N)NC(=O)C(CCCNC(=N)N)NC(=O)C(CCCCN)NC(=O)C(CCCCN)NC(=O)C(CCCNC(=N)N)NC(=O)CN)C(=O)NC(=O)C(C)(C)C(=O)NC(CCC(N)=O)C(=O)NC(CCCNC(=N)N)C(=O)NC(CCCNC(=N)N)C(=O)NC(CCCCN)C(=O)NC(CCCCN)C(=O)NC(CCCNC(=N)N)C(=O)NCC(=O)O (stereo not shown) [Tat5-8, 9 Aib, GRKKRRQ-AibG-QRRKKRG]",AC50,"[4]; 20S proteasome AC50, Table 1, ChT-L activity, Suc-LLVY-MCA, purified human housekeeping 20S",183 nM
same,activation of ChT-L activity of 20S proteasome (in words),"[4]; in vitro, latent human 20S","surprisingly excellent activator slightly less potent than Tat1-8,9Aib"
